Drawing on ChEMBL document CHEMBL5550081, “Is it still worth renewing nucleoside anticancer drugs nowadays?” (Eur J Med Chem, 2024), this text covers IC50, EC50 and CC50 for 16 molecules.

Usually IC50 stands for the concentration needed to halve the response being measured. For orientation: EC50 means the concentration giving half of the maximal effect. In general, CC50 refers to the concentration at which the toxic effect on the cells reaches its halfway point.

Test [1] has as its system A549. In words: Cytotoxicity against human A549 cells assessed as reduction in cell growth incubated for 24 hrs by MTT assay. The format is functional, cell-based. As to conditions: A549, 24 h. For orientation: Tetrazolium assays rely on reduction of a dye to a coloured formazan, in cell work by metabolically active cells.
The subject of test [2] is MCF7. Kind of test: Cytotoxicity against human MCF7 cells assessed as reduction in cell growth incubated for 24 hrs by MTT assay. The format is functional, cell-based. As to conditions: MCF7, 24 h.
In test [3] the test system is MDA-MB-231. In words: Cytotoxicity against human MDA-MB-231 cells assessed as reduction in cell growth incubated for 24 hrs by MTT assay. The format is functional, cell-based. As to conditions: MDA-MB-231, 24 h.
The subject of test [4] is HCT-116. In words: Antiproliferative activity against human HCT-116 cells assessed as reduction in cell growth incubated for 72 hrs by SRB assay. The class given is functional, cell-based. As to conditions: HCT-116, 72 h. Background: Sulforhodamine B stains cellular protein and so reports cell mass.
The test system of test [5] is A549. In words: Antiproliferative activity against human A549 cells assessed as reduction in cell growth incubated for 72 hrs by SRB assay. The format is functional, cell-based. As to conditions: A549, 72 h.
Test [6] concerns PC-3. In words: Antiproliferative activity against human PC-3 cells assessed as reduction in cell growth incubated for 72 hrs by SRB assay. The format is functional, cell-based. As to conditions: PC-3, 72 h.
In test [7] the test system is SNU-638. In words: Antiproliferative activity against human SNU-638 cells assessed as reduction in cell growth incubated for 72 hrs by SRB assay. The format is functional, cell-based. As to conditions: SNU-638, 72 h.
Test [8] has as its system MDA-MB-231. Kind of test: Antiproliferative activity against human MDA-MB-231 cells assessed as reduction in cell growth incubated for 72 hrs by SRB assay. The class given is functional, cell-based. As to conditions: MDA-MB-231, 72 h.
Test [9] relates to SK-HEP1. Kind of test: Antiproliferative activity against human SK-HEP1 cells assessed as reduction in cell growth incubated for 72 hrs by SRB assay. The class given is functional, cell-based. As to conditions: SK-HEP1, 72 h.
For test [10], the system named is SARS-CoV-2. Kind of test: Antiviral activity against SARS-CoV-2 infected in African green monkey Vero E6 cells assessed as inhibition of viral replication by qRT-PCR analysis. The class given is functional, organism-based. As to conditions: Severe acute respiratory syndrome coronavirus 2, Vero C1008. (Quantitative PCR measures a nucleic acid by following its amplification.)

Test [11] has as its system SK-HEP1. In words: Cytotoxicity against human SK-HEP1 cells. The class given is functional, cell-based.
The subject of test [12] is HCT-116. In words: Cytotoxicity against human HCT-116 cells. The class given is functional, cell-based.
Test [13] deals with A549. In words: Cytotoxicity against human A549 cells. The format is functional, cell-based.
Test [14] deals with L929. In words: Cytotoxicity against mouse L929 cells assessed as reduction in cell viability. The format is functional, cell-based.
For test [15], the system named is HeLa. In words: Antiproliferative activity against human HeLa cells assessed as reduction in cell viability incubated for 24 hrs by MTT assay. The class given is functional, cell-based.
Test [16] deals with HeLa. Kind of test: Cytotoxicity against human HeLa cells. The format is functional, cell-based.
Test [17] has as its system Ishikawa. Kind of test: Cytotoxicity against human Ishikawa cells. The class given is functional, cell-based.
Test [18] deals with PANC-1. Kind of test: Antiproliferative activity against human PANC-1 cells assessed as reduction in cell viability incubated for 24 hrs by MTT assay. The class given is functional, cell-based. As to conditions: PANC-1, 24 h.
Test [19] concerns the target PRMT5/MEP50 complex (Homo sapiens, UniProt O14744). Kind of test: Inhibition of PRMT5/MEP50 (unknown origin). The class given is cell-based, HCC4006.
The subject of test [20] is MCF7. In words: Antiproliferative activity against human MCF7 cells assessed as cell growth inhibition incubated for 48 hrs by MTT assay. The class given is functional, cell-based. As to conditions: MCF7, 48 h.
Test [21] has as its system Z-138. Kind of test: Antiproliferative activity against human Z138 cells assessed as cell growth inhibition incubated for 48 hrs by MTT assay. The format is functional, cell-based. As to conditions: Z-138, 48 h.
Test [22] has as its system MCF7. In words: cells. As to conditions: Homo sapiens, MCF7, 48 h.
For test [23], the system named is IMR-32. Kind of test: Cytotoxicity against human IMR-32 cells assessed as reduction in cell viability incubated for 48 hrs by MTT assay. As to conditions: IMR-32, 48 h. The class given is functional, cell-based.
The subject of test [24] is PC-3. In words: Antiproliferative activity against human PC-3 cells assessed as reduction in cell growth incubated for 24 hrs by MTT assay. The format is functional, cell-based. As to conditions: PC-3, 24 h.
Test [25] concerns PC-3. Kind of test: cells. As to conditions: Homo sapiens, PC-3, 48 h.
Test [26] relates to HCT-116. In words: Cytotoxicity against human HCT-116 cells assessed as reduction in cell growth incubated for 72 hrs by MTT assay. As to conditions: HCT-116, 72 h. The class given is functional, cell-based.
Test [27] concerns U-937. In words: Cytotoxicity against human U-937 cells assessed as reduction in cell growth incubated for 72 hrs by MTT assay. As to conditions: U-937, 72 h. The format is functional, cell-based.
Test [28] in a line: Inhibition of Hepatitis C virus NS5B polymerase. The arrangement: species or system Hepacivirus hominis.
In test [29] the test system is A549. In words: Cytotoxicity against human A549 cells assessed as reduction in cell viability measured for 48 hrs by MTT assay. The class given is functional.
The test system of test [30] is MCF7. In words: Cytotoxicity against human MCF7 cells assessed as reduction in cell viability measured for 48 hrs by MTT assay. The class given is functional.
Test [31] has as its system MDA-MB-231. In words: Anticancer activity against human MDA-MB-231 cells. The class given is functional, cell-based.
Test [32] has as its system PANC-1. In words: Cytotoxicity against human PANC-1 cells. The format is functional.
The test system of test [33] is U-87 MG. In words: Cytotoxicity against human U-87 MG cells. The format is functional, U-87MG ATCC.

PRMT5/MEP50 complex, sequence (O14744 whole entry): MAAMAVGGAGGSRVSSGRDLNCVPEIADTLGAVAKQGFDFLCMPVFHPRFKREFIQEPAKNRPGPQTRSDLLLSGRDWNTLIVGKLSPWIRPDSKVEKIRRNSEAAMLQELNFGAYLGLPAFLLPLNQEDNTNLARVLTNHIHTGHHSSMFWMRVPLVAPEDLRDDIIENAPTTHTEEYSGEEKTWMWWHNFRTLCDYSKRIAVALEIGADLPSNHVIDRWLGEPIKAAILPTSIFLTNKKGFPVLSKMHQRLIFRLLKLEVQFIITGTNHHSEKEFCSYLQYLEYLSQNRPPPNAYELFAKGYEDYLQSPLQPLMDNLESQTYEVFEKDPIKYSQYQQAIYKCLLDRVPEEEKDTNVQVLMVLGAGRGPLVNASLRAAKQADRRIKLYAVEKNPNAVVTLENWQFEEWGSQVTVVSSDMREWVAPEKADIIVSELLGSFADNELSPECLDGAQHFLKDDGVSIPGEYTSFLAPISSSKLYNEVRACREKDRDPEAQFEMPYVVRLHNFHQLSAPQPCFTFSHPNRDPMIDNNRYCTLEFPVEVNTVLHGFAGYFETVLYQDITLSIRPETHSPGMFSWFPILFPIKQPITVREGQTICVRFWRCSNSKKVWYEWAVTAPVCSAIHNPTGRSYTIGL
PRMT5/MEP50 complex, sequence (Q9BQA1 whole entry, further chain): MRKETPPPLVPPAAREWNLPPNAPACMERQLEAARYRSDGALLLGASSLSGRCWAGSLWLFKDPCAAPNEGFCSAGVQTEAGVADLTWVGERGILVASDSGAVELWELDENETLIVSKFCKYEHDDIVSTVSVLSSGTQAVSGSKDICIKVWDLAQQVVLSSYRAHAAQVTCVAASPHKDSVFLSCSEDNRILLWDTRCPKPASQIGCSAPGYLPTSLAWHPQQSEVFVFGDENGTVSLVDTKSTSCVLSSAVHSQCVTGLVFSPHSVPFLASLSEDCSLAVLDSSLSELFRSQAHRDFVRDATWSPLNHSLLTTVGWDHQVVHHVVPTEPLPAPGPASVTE

On to `CC(=O)Nc1ccn(-c2nnc(Cn3cnc4c3c(=O)n(C)c(=O)n4C)o2)c(=O)n1`, for which the 50% inhibitory concentration (IC50) in [1] was 20.4 µM; in [2], 25.2 µM; in [3] it was 24.7 µM.

Turning to `C#Cc1cn([C@@H]2S[C@H](CO)[C@@H](O)[C@H]2O)c2ncnc(N)c12`, the IC50 was found to be 0.03 µM in test [4]; 0.06 µM in [5]; 0.004 µM in test [6]; 0.03 µM in test [7]; 0.05 µM in [8]; 0.05 µM in [9].

Regarding `[2H]C([2H])(O)[C@H]1O[C@@](C#N)(c2ccc3c(N)ncnn23)[C@H](O)[C@@H]1O`, in test [10], the EC50 came out at 0.25 µM.

Consider `Nc1ncnc2c1c1sc3c4sccc4sc3c1n2[C@H]1C[C@@H](O)[C@@H](CO)O1`, for which the IC50 was determined as 0.48 µM in test [11], 1.91 µM in test [12] and 14.2 µM in test [13].

In the case of `O=c1[nH]c(=O)n(C[C@H](O)CO)cc1C#Cc1cc2ccccc2c2ccccc12`, the IC50 in test [14] amounted to 38.4 µM; in test [15] it was 39.3 µM; in test [16] it was 39.3 µM; in test [17], 50.1 µM; in test [18], 39.3 µM.

Regarding `Cc1ncnc2c1ccn2[C@@H]1O[C@@H]2[C@H](Cc3ccc4cc(Br)c(N)nc4c3)OC[C@]2(O)[C@H]1O`, the results for the IC50 in [19], in test [20] and in [21] were 0.0008 µM, 0.003 µM and 0.015 µM, respectively.

On to `C[C@H](CCC(=O)OCc1cn(C[C@H]2O[C@@H](n3ccc(=O)[nH]c3=O)[C@@H]3OC(C)(C)O[C@@H]32)nn1)[C@H]1CC[C@H]2[C@@H]3[C@H](O)C[C@@H]4C[C@H](O)CC[C@]4(C)[C@H]3C[C@H](O)[C@]12C`, for which the IC50 in [15] amounted to 96 µM; in test [22], 8.08 µM; in test [23] it was 16.8 µM; in test [24], 17.9 µM; in test [25], 17.9 µM.

Take `Nc1ncnc2c1ncn2Cc1ccc(-c2cn(CCCCCCC(=O)NO)nn2)cc1`: the IC50 in [26] stood at 17.4 µM; in test [27], 1.32 µM.

`Nc1ncnc2c1ncn2[C@@H]1OC2(CC[C@H]2O)[C@@H](O)[C@H]1O` (stereo not given in full) showed an IC50 in test [19] of 0.9 µM.

Turning to `C#C[C@@]1(N)[C@H](O)[C@@H](CO)O[C@H]1n1cnc2c(=O)[nH]c(N)nc21`, the IC50 in [28] is 1.1 µM.

Turning to `CCCCCCCCCCCCc1ccc(-n2cc(CNCCO)nn2)cc1`, the figures for the IC50 in test [18] and in test [24] were 4.9 µM and 11 µM, respectively.

As for `C=C(N)NCCOc1cccc2c1Nc1nc(=O)n([C@@H]3O[C@H](CO)[C@@H](O)[C@H]3O)cc1O2`, the CC50 in test [29] was 0.8 µM; in test [30], 4.3 µM.

`[N-]=[N+]=N[C@@H]1[C@@H](O)[C@H](n2c(-c3c4ccccc4cc4ccccc34)nc3ccccc32)O[C@@H]1CO`: in test [31], the IC50 was 0.42 µM.

Consider `COc1cccc2c1C(=O)c1c(O)c3c(c(O)c1C2=O)C[C@@](O)(C(=O)CO)C[C@@H]3O[C@H]1C[C@H](N)[C@H](O)[C@H](C)O1` [DOXORUBICIN], for which the CC50 in test [29] turned out to be 0.03 µM; in test [30], 0.9 µM. The IC50 stood at 0.44 µM in test [22], 0.043 µM in [23] and 0.336 µM in test [25].

Regarding `Nc1ccn([C@@H]2O[C@H](CO)[C@@H](O)C2(F)F)c(=O)n1` [GEMCITABINE], the IC50 turned out to be 0.23 µM in test [14], 0.24 µM in [16] and 20.3 µM in [17].

As to `Nc1ccn([C@@H]2S[C@H](CO)[C@@H](O)[C@@H]2O)c(=O)n1` [THIARABINE], the CC50 in [32] and in test [33] was 0.59 µM in each case.
